Measured values taken from the supplement of paper PMC10307832.

How the values were obtained:
Assay in all cases: relative viability (nuclei count vs DMSO), 5 days (fraction); higher = more cells survive
17-AAG + Palbociclib = compound: C=CCNC1=C2C[C@@H](C)C[C@H](OC)[C@H](O)[C@@H](C)/C=C(\C)[C@H](OC(N)=O)[C@@H](OC)/C=C\C=C(/C)C(=O)NC(=CC1=O)C2=O [17-AAG] + CC(=O)c1c(C)c2cnc(Nc3ccc(N4CCNCC4)cn3)nc2n(C2CCCC2)c1=O [Palbociclib] (partner 0.5 µM)
In short: (§1)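 Lung cancer cell lines were pin-tool dosed in 1536-well plates on the day after seeding, with either a lone drug or a fixed anchor-drug dose plus five library-drug doses (not always all listed) in √10 steps. Nuclei were counted on 4× images after 5 days. Relative viability is the ratio of treated-well to vehicle-well nuclei counts, with each value a median of duplicate plates.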

17-AAG + Pictilisib = compound: C=CCNC1=C2C[C@@H](C)C[C@H](OC)[C@H](O)[C@@H](C)/C=C(\C)[C@H](OC(N)=O)[C@@H](OC)/C=C\C=C(/C)C(=O)NC(=CC1=O)C2=O [17-AAG] + CS(=O)(=O)N1CCN(Cc2cc3nc(-c4cccc5[nH]ncc45)nc(N4CCOCC4)c3s2)CC1 [Pictilisib] (partner 1 µM)
In short: as §1

17-AAG + Bortezomib = compound: C=CCNC1=C2C[C@@H](C)C[C@H](OC)[C@H](O)[C@@H](C)/C=C(\C)[C@H](OC(N)=O)[C@@H](OC)/C=C\C=C(/C)C(=O)NC(=CC1=O)C2=O [17-AAG] + CC(C)C[C@H](NC(=O)[C@H](Cc1ccccc1)NC(=O)c1cnccn1)B(O)O [Bortezomib] (partner 0.002 µM)
In short: as §1

17-AAG + Foretinib = compound: C=CCNC1=C2C[C@@H](C)C[C@H](OC)[C@H](O)[C@@H](C)/C=C(\C)[C@H](OC(N)=O)[C@@H](OC)/C=C\C=C(/C)C(=O)NC(=CC1=O)C2=O [17-AAG] + COc1cc2c(Oc3ccc(NC(=O)C4(C(=O)Nc5ccc(F)cc5)CC4)cc3F)ccnc2cc1OCCCN1CCOCC1 [Foretinib] (partner 0.25 µM)
In short: as §1

Cell Line	relative viability (17-AAG + Palbociclib; first compound 0.00128 µM)	relative viability (17-AAG + Palbociclib; first compound 0.004048 µM)	relative viability (17-AAG + Palbociclib; first compound 0.0128 µM)	relative viability (17-AAG + Palbociclib; first compound 0.04048 µM)	relative viability (17-AAG + Palbociclib; first compound 0.128 µM)	relative viability (17-AAG + Pictilisib; first compound 0.00128 µM)	relative viability (17-AAG + Pictilisib; first compound 0.004048 µM)	relative viability (17-AAG + Pictilisib; first compound 0.0128 µM)	relative viability (17-AAG + Pictilisib; first compound 0.04048 µM)	relative viability (17-AAG + Pictilisib; first compound 0.128 µM)	relative viability (17-AAG + Bortezomib; first compound 0.00128 µM)	relative viability (17-AAG + Bortezomib; first compound 0.004048 µM)	relative viability (17-AAG + Bortezomib; first compound 0.0128 µM)	relative viability (17-AAG + Bortezomib; first compound 0.04048 µM)	relative viability (17-AAG + Bortezomib; first compound 0.128 µM)	relative viability (17-AAG + Foretinib; first compound 0.00128 µM)	relative viability (17-AAG + Foretinib; first compound 0.004048 µM)	relative viability (17-AAG + Foretinib; first compound 0.0128 µM)	relative viability (17-AAG + Foretinib; first compound 0.04048 µM)	relative viability (17-AAG + Foretinib; first compound 0.128 µM)
NCI-H647	0.414	0.284	0.102	0.0567	0.0782	0.454	0.253	0.0973	0.15	0.106	0.912	0.761	0.0902	0.1	0.0699	1.1	1.16	0.863	0.117	0.0874
NCI-H650	0.325	0.356	0.371	0.339	0.161	0.96	1.05	0.744	0.776	0.329	0.78	0.99	0.669	0.236	0.204	1.04	1.02	1	0.934	0.249
NCI-H661	0.411	0.365	0.314	0.353	0.254	0.39	0.534	0.363	0.259	0.275	0.857	0.912	0.781	0.637	0.393	0.945	0.989	0.809	0.567	0.286
NCI-H727	0.661	0.706	0.588	0.482	0.425	0.405	0.513	0.217	0.171	0.198	0.795	0.766	0.784	0.322	0.229	0.834	0.978	0.636	0.41	0.356
NCI-H838	0.234	0.209	0.133	0.14	0.129	0.498	0.306	0.174	0.157	0.132	0.962	0.653	0.124	0.136	0.0816	0.965	0.977	0.667	0.178	0.158
NCI-H1355	0.414	0.386	0.385	0.302	0.157	0.512	0.439	0.264	0.183	0.151	1.21	1.11	1.28	0.26	0.144	0.938	0.97	0.91	0.843	0.328
NCI-H1437	0.3	0.351	0.259	0.198	0.167	0.534	0.489	0.144	0.0969	0.0847	0.606	0.389	0.176	0.123	0.0811	1.21	1.22	1.09	0.259	0.193
NCI-H1650	0.294	0.187	0.122	0.115	0.0961	0.49	0.212	0.128	0.173	0.144	0.217	0.219	0.181	0.224	0.197	0.89	0.344	0.225	0.212	0.175
NCI-H1651	0.496	0.563	0.511	0.451	0.302	0.568	0.54	0.363	0.148	0.131	0.859	0.928	0.872	0.89	0.425	0.788	0.664	0.423	0.15	0.161
NCI-H1666	0.618	0.672	0.609	0.519	0.526	0.585	0.302	0.265	0.196	0.157	0.78	0.687	0.244	0.228	0.171	1.04	0.963	0.587	0.383	0.341
NCI-H1734	0.366	0.402	0.369	0.303	0.175	0.447	0.468	0.361	0.205	0.151	0.917	0.897	0.734	0.269	0.145	0.895	0.951	0.856	0.282	0.18
NCI-H1755	0.435	0.443	0.471	0.425	0.33	0.446	0.407	0.229	0.126	0.09	0.966	0.9	0.817	0.391	0.189	0.92	0.898	0.888	0.302	0.309
NCI-H1915	0.533	0.503	0.471	0.253	0.0774	0.848	0.992	0.832	0.207	0.0693	0.846	1.02	0.85	0.884	0.118	1.09	1.06	1.12	1.06	0.271
NCI-H1975	0.547	0.526	0.22	0.106	0.104	0.3	0.176	0.116	0.119	0.103	0.445	0.34	0.149	0.145	0.119	1.02	0.904	0.288	0.136	0.118
NCI-H1993	0.704	0.622	0.813	0.373	0.296	0.797	0.806	0.667	0.6	0.638	1.04	1.25	0.609	0.454	0.369	0.83	0.846	0.826	0.516	0.466
NCI-H2009	0.22	0.254	0.258	0.203	0.0584	0.744	0.829	0.744	0.277	0.091	0.974	0.995	0.917	0.815	0.142	1.23	1.14	1.17	0.85	0.138
NCI-H2023	0.374	0.195	0.102	0.0665	0.0605	0.292	0.173	0.0917	0.0989	0.0852	0.886	0.878	0.138	0.0901	0.0776	0.93	0.672	0.297	0.0761	0.0537
NCI-H2085	0.51	0.472	0.479	0.443	0.337	0.474	0.416	0.448	0.475	0.529	1.08	1.02	1.11	1.04	0.714	0.92	0.834	1.06	0.844	0.563
NCI-H2087	0.315	0.179	0.185	0.0984	0.108	0.867	0.651	0.356	0.229	0.175	0.85	0.674	0.377	0.215	0.137	1.08	0.855	0.183	0.137	0.113
NCI-H2126	0.358	0.375	0.364	0.344	0.349	0.509	0.533	0.492	0.316	0.284	1.09	1.1	0.993	1.06	0.255	1.29	1.19	1.05	0.908	0.236
NCI-H2228	0.672	0.483	0.131	0.101	0.107	0.346	0.153	0.128	0.148	0.102	0.88	0.304	0.137	0.167	0.135	0.772	0.587	0.142	0.119	0.0997
NCI-H2347	0.45	0.446	0.397	0.317	0.322	0.671	0.478	0.508	0.717	0.43	–	0.995	0.871	0.447	0.371	–	1.03	0.859	0.35	0.413
NCI-H2405	0.541	0.525	0.364	0.219	0.174	0.521	0.248	0.175	0.179	0.164	1.04	1.03	1	0.675	0.217	1.1	1.04	0.93	0.245	0.195
NCI-H3122	0.194	0.155	0.19	0.0911	0.117	0.489	0.375	0.195	0.194	0.161	0.926	0.954	0.506	0.488	0.177	0.961	0.934	0.138	0.076	0.098
PC-3 [JPC-3]	0.575	0.57	0.551	0.463	0.528	0.795	0.791	0.727	–	0.586	0.824	0.848	0.814	–	0.707	0.981	1.04	1.01	–	0.885
PC-14	0.471	0.241	0.0966	0.0821	0.0751	0.654	0.219	0.057	0.067	0.0563	0.915	0.822	0.808	0.12	0.101	0.943	0.961	0.82	0.143	0.134
RERF-LC-KJ	1.11	1.07	0.857	0.472	0.219	0.591	0.688	0.324	0.242	0.21	1.17	1.17	0.888	0.288	0.303	0.883	0.951	0.974	0.346	0.296
SK-LU-1	0.441	0.469	0.295	0.272	0.204	0.558	0.374	0.199	0.127	0.141	0.976	0.903	0.311	0.238	0.197	0.863	0.566	0.167	0.143	0.127
SW 1573	0.459	0.207	0.169	0.103	0.0788	0.549	0.531	0.206	0.19	0.104	1.23	1.02	0.687	0.225	0.117	0.886	1.01	0.829	0.24	0.113
UMC-11	0.353	0.371	0.3	0.249	0.292	0.824	0.809	0.662	0.219	0.143	0.667	0.616	0.629	0.227	0.12	1.02	1.04	0.847	0.27	0.174
